The record followed here is patent publication US6407094B1, “Glutamate receptor antagonists” (Hoffmann-la Roche Inc., priority 1999, dated 2002).

A value given as a limit tells only on which side of the number the result lay.

The melting point is the temperature, or range, at which the solid turns liquid.

As to `N#Cc1cccc(C2=Nc3cc(N4CCS(=O)(=O)CC4)c(C#Cc4ccccc4)cc3NC(=O)C2)c1` [Example 6, 3-[8-(1,1-Dioxo-thiomorpholin-4-yl)-4-oxo-7-phenylethynyl-4,5-dihydro-3H-benzo[b][1,4]diazepin-2-yl]-benzonitrile], the melting point was > 250 °C (dec.).

`COC(=O)c1cc2c(cc1C#Cc1ccccc1)NC(=O)CC(c1cccc(C#N)c1)=N2` [Example 19, 4-(3-Cyano-phenyl)-2-oxo-8-phenylethynyl-2,3-dihydro-1H-benzo[b][1,4]diazepine-7-carboxylic acid methyl ester] returned a melting point greater than 250 °C.

Regarding `N#CCOc1cc2c(cc1C#Cc1ccccc1)NC(=O)CC(c1cccc(-n3ccnc3)c1)=N2` [Example 35, [4-(3-Imidazol-1-yl-phenyl)-2-oxo-8-phenylethynyl-2,3-dihydro-1H-benzo[b][1,4]diazepin-7-yloxy]-acetonitrile], the melting point came to 214 °C.

`O=C1CCN(c2cc3c(cc2-c2ccccc2F)NC(=O)CC(c2cccc(-n4ccnc4)c2)=N3)CC1` [Example 78, 8-(2-Fluoro-phenyl)-4-(3-imidazol-1-yl-phenyl)-7-(4-oxo-piperidin-1-yl)-1,3-dihydro-benzo[b][1,4]diazepin-2-one]: the melting point is 230 °C.

`COCCOc1cc2c(cc1C#Cc1ccccc1)NC(=O)CC(c1cccc(C#N)c1)=N2` [Example 18, 3-[8-(2-Methoxy-ethoxy)-4-oxo-7-phenylethynyl-4,5-dihydro-3H-benzo[b][1,4]diazepin-2-yl]-benzonitrile] displayed a melting point of 174 to 176 °C.

In turn, `N#Cc1cccc(C2=Nc3cc(O)c(-c4ccccc4F)cc3NC(=O)C2)c1` [Example 66, 3-[7-(2-Fluoro-phenyl)-8-hydroxy-4-oxo-4,5-dihydro-3H-benzo[b][1,4]diazepin-2-yl]-benzonitrile] registered a melting point greater than 250 °C.

Take `COc1cc2c(cc1-c1ccc(F)cc1C)NC(=O)CC(c1cccc(-n3ccnc3)c1)=N2` [Example 60, 8-(4-Fluoro-2-methyl-phenyl)-4-(3-imidazol-1-yl-phenyl)-7-methoxy-1,3-dihydro-benzo[b][1,4]diazepin-2-one]: the melting point worked out at 225 °C.

`CCOCc1cc2c(cc1C#Cc1ccccc1)NC(=O)CC(c1cccc(C#N)c1)=N2` [Example 29, 3-(8-Ethoxymethyl-4-oxo-7-phenylethynyl-4,5-dihydro-3H-benzo [b][1,4]diazepin-2-yl)-benzonitrile] showed a melting point of 229 °C.

As for `O=C1CC(c2cccc(-n3ccnn3)c2)=Nc2cc(O)c(-c3ccc(F)cc3)cc2N1` [Example 86, 8-(4-Fluoro-phenyl)-7-hydroxy-4-(3-[1,2,3]triazol-1-yl-phenyl)-1,3-dihydro-benzo[b][1,4]diazepin-2-one], the melting point was greater than 250 °C.

Molecule `COC1CCN(c2cc3c(cc2C#Cc2ccccc2)NC(=O)CC(c2cccc(C#N)c2)=N3)CC1` [Example 34, 3-[8-(4-Methoxy-piperidin-1-yl)-4-oxo-7-phenylethynyl-4,5-dihydro-3H-benzo[b][1,4]diazepin-2-yl]-benzonitrile] came in with a melting point of 250 to 251 °C.

`O=C1CC(c2cccc(-n3ccnc3)c2)=Nc2cc(N3CCC(O)CC3)c(-c3ccc(F)cc3)cc2N1` [Example 43, 8-(4-Fluoro-phenyl)-7-(4-hydroxy-piperidin-1-yl)-4-(3-imidazol-1-yl-phenyl)-1,3-dihydro-benzo[b][1,4]diazepin-2-one] returned a melting point of 238 to 240 °C.

`COc1cc2c(cc1-c1ccccc1F)NC(=O)CC(c1cccc(-n3cnnc3)c1)=N2` [Example 70, 8-(2-Fluoro-phenyl)-7-methoxy-4-(3-[1,2,4]triazol-4-yl-phenyl)-1,3-dihydro-benzo[b][1,4]diazepin-2-one]: the melting point was 188 °C (dec.).

As for `O=C1CCN(c2cc3c(cc2C#Cc2ccccc2)NC(=O)CC(c2cccc(-n4ccnc4)c2)=N3)CC1` [Example 39, 4-(3-Imidazol-1-yl-phenyl)-7-(4-oxo-piperidin-1-yl)-8-phenylethynyl-1,3-dihydro-benzo[b][1,4]diazepin-2-one], the melting point is 231 °C (dec.).

As to `CC(C)(C)C(=O)OCc1cc2c(cc1C#Cc1ccccc1)NC(=O)CC(c1cccc(C#N)c1)=N2` [Example 30, 2,2-Dimethyl-propionic acid 4-(3-cyano-phenyl)-2-oxo-8-phenylethynyl-2,3-dihydro-1H-benzo[b][1,4]diazepin-7-ylmethyl ester], the melting point came out at 218 °C.

`O=C1CCN(c2cc3c(cc2-c2ccc(F)cc2)NC(=O)CC(c2cccc(-n4ccnc4)c2)=N3)CC1` [Example 52, 8-(4-Fluoro-phenyl)-4-(3-imidazol-1-yl-phenyl)-7-(4-oxo-piperidin-1-yl)-1,3-dihydro-benzo[b][1,4]diazepin-2-one] came in with a melting point of 204 °C.

Take `N#Cc1cc(C2=Nc3cc(O)c(-c4ccc(F)cc4)cc3NC(=O)C2)ccn1` [Example 74, 4-[7-(4-Fluoro-phenyl)-8-hydroxy-4-oxo-4,5-dihydro-3H-benzo[b][1,4]diazepin-2-yl]-pyridine-2-carbonitrile]: the melting point stood at 164 °C.

For the molecule `CONC(=O)COc1cc2c(cc1C#Cc1ccccc1)NC(=O)CC(c1cccc(C#N)c1)=N2` [Example 41, 2-[4-(3-Cyano-phenyl)-2-oxo-8-phenylethynyl-2,3-dihydro-1H-benzo[b][1,4]diazepin-7-yloxy]-N-methoxy-acetamide], the melting point was greater than 250 °C.

Turning to `O=C1CC(c2cccc(-n3ccnc3)c2)=Nc2cc(N3CCC4(CC3)OCCO4)c(-c3ccccc3F)cc2N1` [Example 77, 7-(1,4-Dioxa-8-aza-spiro[4.5]dec-8-yl)-8-(2-fluoro-phenyl)-4-(3-imidazol-1-yl-phenyl)-1,3-dihydro-benzo[b][1,4]diazepin-2-one], the melting point came to 225 °C.

In the case of `Cc1cc2c(cc1C#Cc1ccccc1)NC(=O)CC(c1cccc(C#N)c1)=N2` [Example 4, 3-(8-Methyl-4-oxo-7-phenylethynyl-4,5-dihydro-3H-benzo[b][1,4]diazepin-2-yl)-benzonitrile], the melting point is 237 to 239 °C (dec.).

For `COc1cc2c(cc1-c1cc(F)ccc1F)NC(=O)CC(c1cccc(C#N)c1)=N2` [Example 82, 3-[7-(2,5-Difluoro-phenyl)-8-methoxy-4-oxo-4,5-dihydro-3H-benzo[b][1,4]diazepin-2-yl]-benzonitrile], the melting point came to 251 °C.

For `N#Cc1cccc(C2=Nc3cc(OCC(O)CO)c(C#Cc4ccccc4)cc3NC(=O)C2)c1` (centres unmarked) [Example 24, 3-[8-(2,3-Dihydroxy-propoxy)-4-oxo-7-phenylethynyl-4,5-dihydro-3H-benzo[b][1,4]diazepin-2-yl]-benzonitrile], the melting point is 230 to 234 °C (dec.).

On to `CN(C)Cc1cc2c(cc1-c1ccc(F)cc1)NC(=O)CC(c1cccc(-n3ccnc3)c1)=N2` [Example 48, 7-Dimethylaminomethyl-8-(4-fluoro-phenyl)-4-(3-imidazol-1-yl-phenyl)-1,3-dihydro-benzo[b][1,4]diazepin-2-one], for which the melting point was 115 to 140 °C (dec.).

As to `CN(C)CCSc1cc2c(cc1C#Cc1ccccc1)NC(=O)CC(c1cccc(C#N)c1)=N2` [Example 11, 3-[8-(2-Dimethylamino-ethylsulfanyl)-4-oxo-7-phenylethynyl-4,5-dihydro-3H-benzo[b][1,4]diazepin-2-yl]-benzonitrile], the melting point is 197 °C (dec.).
